Measurements: patent US4737519A, “Substituted naphthalenes, indoles, benzofurans, and benzothiophenes as lipoxygenase inhibitors” (The Upjohn Company, priority 1986, dated 1988)

What was measured:
[1] = system: tracheal mucus velocity; details: given prior to antigen challenge, patients with a history of bronchial asthma; cited from earlier work
[2] = system: canine tracheas; details: in vivo; cited from earlier work
[3] = system: mucus release; details: in vivo in the cat; cited from earlier work
[4] = system: human airways; details: in vitro; cited from earlier work
[5] = system: mucous secretion; experiment: canine tracheal mucous secretion (hillock count); format: in vivo, mongrel dogs; details: 1.0 mg in the CTA
Description: Mongrel dogs (weight 18-35 kg) were anesthetized with a mixture of chloralose (100 mg/kg) and urethane (500 mg/kg) via intravenous injection. The animals were secured to a surgery table, ventral side up, and the neck and inner right hind limb were shaved. A ventral midline incision was made in the neck using a Bovie CSVII electrosurgical unit, starting from the papillae (interramal) to the clavicle thus exposing the trachea. An endotracheal tube was secured into the lower trachea. The animals were then connected via the endotracheal tube to a Harvard respirator (Model 607A) that delivered room air at a constant tidal volume and frequency. Two polyethylene catheters were connected to the endotracheal tube, and one was connected to a medical gas analyzer (Beckman, Model LB-2) that continuously measured the carbon dioxide (CO2) content of the expired air for determination of end tidal CO2. The other was connected to a pressure transducer (Statham, Model PMI 131TC+2.5-350) for the measurement of airway press ure.
A second incision made in the inner right hind limb to expose the femoral artery and vein was made for the catheterization of these large vessels. A polyethylene catheter was tied into the artery and connected to a pressure transducer (Statham, Model P231D) for the measurement of blood pressure. This catheter also allowed for samples of arterial blood to be collected for measurements of blood gas tension using a blood gas analyser (Corning, Model 175). Another polyethylene catheter was tied into the femoral vein which was used for injecting additional anesthetic and paralyzing drugs. Gallamine triethiodide (20-40 mg) was used to paralyze the respiratory muscles and a single injection of sodium bicarbonate 7.5% (0.5 mg/kg) in conjunction with a continuous i.v. drip of 5% dextrose in 0.9% saline helped to maintain fluid balance. All physiological measurements were recorded and monitored on a polygraph (Grass instruments, Model 7D). Once the femoral cutdown was completed, surgery on the neck region resumed. The carotid artery was exposed and the "knuckle" (a portion of the carotid which bisects to supply blood flow to the trachea and neck muscles) was located. A small polyethylene catheter was then inserted into the muscular branch of the cranial thyroid artery (CTA). This allowed for close arterial injection of experimental agents. The strap muscles were removed and the mucosal surface of the trachea exposed by cutting along the anterior midline of the upper two-thirds of the extrathoracic trachea and pulling the cut edges widely apart. The exposed mucosa was checked for proper canulation by blanching and appropriate adjustments of the canula into the CTA were made until blanching was achieved.
(§1) Isometric tension measurements of the trachealis muscle were recorded by suturing a rigid, plastic bar to the (15) cartilaginous rings of the cut edges of the trachea, and connecting one side to a fixed restraint and the contralateral side to a force displacement transducer (Grass, Model FT 03C). An initial tension of 25-30 g/cm of trachea was applied to the muscle, and it was allowed to stabilize for 45 min. An initial zero tension point was determined before agonists were injected into the CTA, and the zero was readjusted after agonist injections.
To visualize secretions coming from the submucosal gland duct openings of the trachea, powdered tantalum, an inert metal (2-5 microns in size) was sprayed on the trachea until it formed a uniform layer over the mucosal surface. The tantalum itself did nothing to normal secretion, but prevented the normal ciliary dispersion of secretions from the gland duct openings; these secretions, therefore, caused elevations ("hillocks") in the tantalum layer. The number of hillocks formed in a 1.2 cm^2 field, 1-2 cm from the larynx, were counted and their images were recorded with a video camera (Hitachi CCTV, Model HV-17TU) mounted on a dissecting microscrope (Zeiss Ompi-1) with a beam splitter. […]

[6] = system: trachealis muscle; experiment: isometric tension of the trachealis muscle in dogs; format: in vivo, mongrel dogs; details: 1.0 mg in the CTA
Description: as §1
When drug activity was assessed with arachidonic acid induced secretion, the animals were pretreated with indomethacin (Indo) (5 mg/kg) for at least 30 minutes. Before any drugs were given, however, the appropriate controls for arachidonate and indomethacin were run. The standard procedure for this was to determine the effect of (1) arachidonate alone, (2) indomethacin alone, and (3) indomethacin/arachidonate combination on normal baseline secretion. Once these control values were acquired, the drug was given. An experimental drug given in the presence of the indomethacin/arachidonate combination helps to characterize that portion of the response due to lipoxygenase products. […] Hillocks were counted for 2-3 minutes immediately after the arachidonate was given.

Structure (SMILES) | reversing the tracheal mucus velocity [1] | release of mucus from canine tracheas [2] | stimulating mucus release [3] | release of mucus from human airways [4] | effect on mucus secretion [5] | effect on the trachealis muscle [6]
CCCc1c(OCC(O)COc2ccc3c(=O)cc(C(=O)O)oc3c2CCC)ccc(C(C)=O)c1O (stereo not drawn) [FPL 55712] | effective in reversing the tracheal mucus velocity | – | – | – | – | –
CCCCC/C=C\C\C=C/C=C/C=C/[C@@H](SC[C@H](NC(=O)CC[C@H](N)C(=O)O)C(=O)NCC(=O)O)[C@@H](O)CCCC(=O)O [LTC4, leukotriene C4] | – | increase the release of mucus | effective in stimulating mucus release in vivo in the cat | increase the release of mucus | – | –
CCCCC/C=C\C\C=C/C=C/C=C/[C@@H](SC[C@H](N)C(=O)NCC(=O)O)[C@@H](O)CCCC(=O)O [LTD4, leukotriene D4] | – | increase the release of mucus | – | increase the release of mucus | – | –
CCCCC/C=C\C/C=C\C/C=C\C/C=C\CCCC(=O)O [arachidonate, arachidonic acid] | – | – | – | release mucus from human airway | stimulates mucus secretion | slight stimulation followed by relaxation of the trachealis muscle
